Data as given in patent publication US4636464A (priority 1985, dated 1987).

Experiments:
Format in all cases: biochemical, Coriolus versicolor
pyranose oxidase [1] = molecular target: T1, pyranose oxidase (Trametes versicolor, UniProt P79076); assay: Electron acceptor test (Thunberg tube, absorbancy change)
T1 construct: made in house; not recombinant
Method: In this phase, 1.4 ml of 50 mM tris-hydrochloride buffer (pH 7.0), 0.1 ml of 250 mU enzyme solution and 0.5 ml of electron acceptor solutions having various concentrations as indicated in Table 2 are put into a cell with Thunberg tube. […] The change in absorbancy per minute from 30 minutes to 90 minutes after the mixturing is determined and the activities of the electron acceptors are expressed as relative activity.

pyranose oxidase [2] = molecular target: T1, pyranose oxidase; settings: for Percent Inhibition (%): 0.2 ml of 18.5 mM inhibitor solution, 280 mU pyranose oxidase, pH 7.0, 37° C.
From the text: The inhibitor is studied in the same manner as that adopted in determination of the optimum pH.

pyranose oxidase [3] = molecular target: T1, pyranose oxidase; assay: biochemical; parameters: activity: dose or concentration left out as unconfirmed; settings: for activity at 100000 µM: pH 7, read-out: Relative Activity (%); for activity: pH 7, read-out: Relative Activity (%); for Substrate specificity in words: same test as Table 1
Method: Said coloring reagent is prepared by adding 0.1M tris-hydrochloride buffer (pH 7.0) containing 10 m mol/l 4-aminoantipyrine(hereinafter referred to as 4AA) and 10 m mol/l phenol, to peroxidase in a concentration of 2000 U per 100 ml of the buffer. The increasing rate of the absorbancy at 500 nm is automatically measured on a spectrophotometer. The molecular extinction coefficient of a quinoneimine pigment formed under these conditions is defined as 5.3×10^3, and one unit of the enzymatic activity is also defined as the amount of the enzyme that produces one μ mole of hydrogen peroxide per minute at a temperature of 37° C. and at a pH of 7.0.
The results are expressed as percentages of the glucose reaction.

[4] = electron acceptor solution 0.1 mM, pH 7.0, dissolved oxygen removed, read-out: Relative Activity (%)
[5] = electron acceptor solution 0.1 mM, pH 7.0, dissolved oxygen removed

Compound: O=C1C(Cl)=CC(=Nc2ccc(O)cc2)C=C1Cl [2,6-Dichlorophenolindophenol]
- Suitability as electron acceptor in words (pyranose oxidase [1]): may be made electron acceptor
- activity at 40 µM (stock) (pyranose oxidase [1]; electron acceptor solution 0.04 mM, pH 7.0, dissolved oxygen removed, read-out: Relative Activity (%)): 2.5%

Compound: NC(=O)c1ccc[n+]([C@@H]2O[C@H](COP(=O)([O-])OP(=O)(O)OC[C@H]3O[C@@H](n4cnc5c(N)ncnc54)[C@H](OP(=O)(O)O)[C@@H]3O)[C@@H](O)[C@H]2O)c1 [Nicotinamide-adenine dinucleotide phosphate]
- activity at 100 µM (stock) (pyranose oxidase [1]; [4]): 0%

Compound: NC(=O)c1ccc[n+]([C@@H]2O[C@H](COP(=O)([O-])OP(=O)(O)OC[C@H]3O[C@@H](n4cnc5c(N)ncnc54)[C@H](O)[C@@H]3O)[C@@H](O)[C@H]2O)c1 [Nicotinamide-adenine dinucleotide]
- activity at 100 µM (stock) (pyranose oxidase [1]; [4]): 0%

Compound: O=O [Oxygen]
- Suitability as electron acceptor in words (pyranose oxidase [1]): optimum electron acceptor
- Relative Activity (%) (pyranose oxidase [1]; electron acceptor: dissolved oxygen, pH 7.0, glucose substrate): 100%

Compound: O=S(=O)([O-])[O-].[Co+2] [cobalt sulfate]
- Percent Inhibition (%) (pyranose oxidase [2]): 13.3%

Compound: O=S(=O)([O-])[O-].[Cu+2] [copper sulfate]
- Inhibition of the enzymatic action in words (pyranose oxidase [2]): inhibited
- Percent Inhibition (%) (pyranose oxidase [2]): 35.7%

Compound: O=C(CO)[C@@H](O)[C@H](O)[C@H](O)CO [fructose]
- activity at 100000 µM (pyranose oxidase [3]): 0%

Compound: O=C(O)[C@H](O)[C@@H](O)[C@H](O)[C@H](O)CO [gluconic acid]
- activity (pyranose oxidase [3]): 0%

Compound: N[C@H]1C(O)O[C@H](CO)[C@@H](O)[C@@H]1O (stereo partly shown) [glucosamine]
- activity (pyranose oxidase [3]): 0%

Compound: OC[C@H]1O[C@@H](O[C@H]2[C@H](O)[C@@H](O)C(O)O[C@@H]2CO)[C@H](O)[C@@H](O)[C@H]1O (stereo partly shown) [lactose]
- activity (pyranose oxidase [3]): 0%

Compound: O=S(=O)([O-])[O-].[Mg+2] [magnesium sulfate]
- Percent Inhibition (%) (pyranose oxidase [2]): 0%

Compound: OC[C@H]1O[C@H](O[C@H]2[C@H](O)[C@@H](O)[C@H](O)O[C@@H]2CO)[C@H](O)[C@@H](O)[C@@H]1O [maltose]
- activity (pyranose oxidase [3]): 0%

Compound: OC[C@@H](O)[C@@H](O)[C@H](O)[C@H](O)CO [mannitol]
- activity (pyranose oxidase [3]): 0%

Compound: O=C(O)c1cc[c]([Hg][Cl])cc1 [p-chloromercuribenzoate]
- Inhibition of the enzymatic action in words (pyranose oxidase [2]): inhibited
- Percent Inhibition (%) (pyranose oxidase [2]): 50.0%

Compound: O=[N+]([O-])[O-].[Ag+] [silver nitrate]
- Inhibition of the enzymatic action in words (pyranose oxidase [2]): inhibited
- Percent Inhibition (%) (pyranose oxidase [2]): 53.3%

Compound: O=C(CO)[C@H](O)[C@@H](O)[C@H](O)CO [sorbose]
- activity at 100000 µM (pyranose oxidase [3]): 3.4%
- Substrate specificity in words (pyranose oxidase [3]): acts upon

Compound: OC[C@H]1O[C@H](O[C@H]2O[C@H](CO)[C@@H](O)[C@H](O)[C@H]2O)[C@H](O)[C@@H](O)[C@@H]1O [trehalose]
- activity (pyranose oxidase [3]): 0%

Compound: OC1OC[C@@H](O)[C@H](O)[C@H]1O (stereo partly shown) [xylose]
- activity (pyranose oxidase [3]): 2.6%
- Substrate specificity in words (pyranose oxidase [3]): acts upon

Compound: Cytochrome C
- Suitability as electron acceptor in words (pyranose oxidase [1]): may be made electron acceptor
- Relative Activity (%) (pyranose oxidase [1]; [5]): 0.33%

Compound: Nitroprusside-tetrazolium
- Relative Activity (%) (pyranose oxidase [1]; [5]): 0%
